Experiment [1] concerns Drosophila melanogaster RyR M4758I. Description: Bioassay of gene-edited Drosophila melanogaster (feeding, mortality after 24 h). The format is in vivo. The following applies: 24 h.
The test system of experiment [2] is Drosophila melanogaster RyR G4915E. The description is as above. The format is in vivo. The following applies: 24 h.

Where “and” joins values, the source holds several entries; their conditions need not be identical. Identical values can stand only once.

As for `Cc1cc(C(F)(C(F)(F)F)C(F)(F)F)ccc1NC(=O)c1cccc(I)c1C(=O)NC(C)(C)CS(C)(=O)=O` [FLU, flubendiamide], the death rate in experiment [1] (FLU 0.033 uM) was 0%; in experiment [1] (FLU 0.100 uM) it was 0% and 10%; in experiment [1] (FLU 0.333 uM), 10%; in experiment [1] (FLU 1.000 uM), 10% and 20%; in experiment [1] (FLU 3.333 uM), 20% and 30%; in experiment [1] (FLU 10.000 uM) it was 50%. The death rate in experiment [1] (FLU 33.333 uM) was 60% and 70%; in experiment [1] (FLU 100.000 uM), 100%; in experiment [1] (FLU 333.333 uM), 100%; in experiment [2] (FLU 1.000 uM), 0%; in experiment [2] (FLU 3.333 uM) it was 0%; in experiment [2] (FLU 10.000 uM), 0%. Besides, the death rate in experiment [2] (FLU 33.333 uM), in experiment [2] (FLU 100.000 uM) and in experiment [2] (FLU 333.333 uM) was 0% throughout.
